In assay [1] the test system is Human betaherpesvirus 5. The assay can be described thus: Compound was tested for complete inhibition of growth rate against human cytomegalo virus. The format is functional.
The test system of assay [2] is Human betaherpesvirus 5. The assay can be described thus: Compound was tested for cytotoxicity against human cytomegalo virus at 100 uM; NA - no activity. The assay is classed as functional, organism-based.

SMILES strings stand for the structures. Calls of active or inactive are those of the source. The calls are words filed in the database; no cut-off is given here.

Results on one molecule are retold here after ChEMBL document CHEMBL1125852, “Synthesis of 4-Amino-1-(-D-ribofuranosyl)pyrrolo[2,3-d]pyridazine; an entry into a novel series of adenosine analogs” (1991).

As to `Nc1nncc2c1ccn2C1O[C@H](CO)[C@@H](O)[C@H]1O` (some centres not stated), the Inhibition in the assay with Human betaherpesvirus 5 [1] amounted to 0.043 µM. Moreover, the result in the assay with Human betaherpesvirus 5 [2] was inactive.
